Patent US20240033502A1 (Wesbot, LLC, priority 2022, published 2024)
Several values for one entry are separate records, joined by “and”; a condition that tells them apart may be missing. Equal entries are not always repeated. Where two headings read alike, the source gives them in different places.

Columns and labels:
[1] = tested on: Escherichia coli (strain BW25113); details: paper filter disks moistened with 0.75 M generated hydrogen peroxide in PBS on seeded LB agar, 37° C. for 18-24 hr, qualitative
Method: A plate with Lysogeny Broth (LB) Agar media was evenly seeded with a 1 Optical Density (OD) culture of Escherichia coli (strain BW25113). […] Plates were left to dry and incubated at 37° C. for 18-24 hr.

E. coli [2] = experiment: Killing (antimicrobial) test, CFU count; assay type: cell-based, Escherichia coli
Method: The initial colony forming units per mL (CFU/mL) were counted by plating 50 uL of a dilution 1:10,000 of the culture on LB agar plates. Next, 3 ml of the bacterial culture were treated with 1 ml of separately generated H2O2 0.75 M such that the final concentration of H2O2 in the bacteria containing plates reached around 0.25 M. To count the bacterial survival after treatment, 100 μl of 1:10,000 dilution were plated on LB agar plates and incubated at 37° C. for 18-24 hrs. The percentage of killed bacteria was calculated using the initial CFU as 100% and subtracting the recovered CFU after treatment.

E. coli [3] = details: 0.5 mL of 0.05 OD culture, 5 mA electric current for 30 min; triplicate experiments
Method: To test this an E. coli culture was grown from a single colony in LB media at 37° C., until reaching 0.05 OD. Next, 0.5 mL of this culture was treated with 5 mA of electric current for 30 min. The counting of CFU/ml before and after applying the current for 30 min was done by plating 50 and 100 μL of 1:10,000 dilution respectively on LB agar plates and incubating at 37° C. for 18-24 hrs.

With `OO` [hydrogen peroxide] the “zone of growth inhibition” value [1] was “disinfection in region of clearance”, the “zone of growth inhibition” value ([1]; listed as H2O2) was “zone of growth inhibition” and the “Peroxide Treated (CFU x 10^6)” value (E. coli [2]; 3 ml culture (0.05 OD) + 1 ml separately generated H2O2 0.75 M, final around 0.25 M, triplicate experiments) was 1.2 CFU x 10^6 and 0.7 CFU x 10^6. The “% Killed (%)” value (E. coli [2]; final H2O2 around 0.25 M, initial CFU as 100%, triplicate experiments) was 96.1% and 96% and 94.2%, the “rate at which bacteria population is killed” value (E. coli [2]; from triplicate antimicrobial test, Table 4) was 2.5 % CFU/μmol H2O2 and the “% Killed (%)” value (E. coli [3]) was 99.6%.
